Laboratory results taken from patent US7795208B2, “Methods of using deacetylase inhibitors to promote cell differentiation and regeneration” (The Salk Institute for Biological Study, priority 2001, dated 2010).
Several values for one entry are separate records, joined by “and”; a condition that tells them apart may be missing. Equal values may be shown once.

Columns and labels:
C2C12 cells = test: Differentiation and muscle protein expression of C2C12 myoblasts exposed to deacetylase inhibitors (MHC immunofluorescence, Western blot, RT-PCR, FACS); type: cell-based, mouse; conditions: for Nuclei/MHC-Positive Cells (number of nuclei) / percentage of nuclei detected in MHC-positive cells: C2C12, DI 24 hours in GM, then DM without DI, Tr. 1 and Tr. 2; for MHC expression and frequency of MHC-positive multinucleated cells: undifferentiated myoblasts exposed in GM, differentiated in the absence of DI, vs untreated cells
Experimental: Mouse muscle myoblast C2C12 cells (obtained from the American Type Culture Collection, ATCC CRL-1772) and CC42 cells (from Dr. Kenneth Walsh, Tufts University School of Medicine) were cultured in DMEM supplemented with 20% fetal bovine serum, 2 mM glutamine and 1× kanamycin (growth medium, GM). Cellular differentiation was induced with DMEM supplemented with 2% horse serum and 1× insulin, transferring, selenium (Life Technologies). Human skeletal myocytes (CC-2561) were purchased from Clonetics. Stable C2C12 cell lines with integrated reporters are described in Wu, Z., et al., Mol Cell Biol 20:3951-64 (2000). The MCK-luc, 4RE-luc, MEF2 reporter constructs have been described in Puri, P. L., et al., EMBO Journal 16:369-83 (1997a) and Sartorelli, V., et al., Molecular & Cellular Biology 17:1010-26 (1997). The E2F-luc plasmid is described in Helin, K., et al., Genes Dev 7:1850-61 (1993). The MLC-lacZ-nls plasmid is described in Wu, et al. (2000). Dr. Stuart Schreiber (Harvard University) provided the vector expressing Flag-HDAC1, which is described in Taunton, J., et al., Science 272: 408-11 (1996). Transient transfections were performed using FuGENE 6 transfection reagent (Roche Molecular Biochemicals). Following transfections, luciferase activity was determined using the Dual-Luciferase reporter assay system (Promega) on a microtiter luminescence detection system (MLX, Dynex).
For immunoblotting, cell extracts were obtained after incubating the cells in standard lysis buffer. Western blots were probed with the following antibodies: anti-MHC (MF-20), anti-myogenin (FD5), and anti-tubulin (E7), obtained from the Developmental Studies Hybridoma Bank, University of Iowa. Primary antibodies were visualized with the ECL cheminoluminescent kit (Amersham). Cells were fixed and stained with anti-MHC MF-20 antibodies. Nuclei were visualized by 4′,6′-[…]-2-phenylindole (DAPI). FITC-conjugated or Texas red-conjugated secondary antibodies were employed to reveal the primary antibodies.
C2C12 and CC42 cells were exposed to sodium butyrate 5 mM (Sigma), trichostatin A 50 nM (Upstate Biotechnologies), or valproic acid 10 mM (Sigma) for 24 hours in GM (GM regimen). TSA was removed and the cells cultured in DM for 48 hrs before being analyzed. When indicated (DM regimen), the cells were exposed to deacetylase inhibitors when switched from GM to DM and cultured in their presence for 48 hrs.
Another striking effect induced by DI is their ability to increase the number of nuclei present in MHC positive cells. While approximately 15% of the total nuclei are present in elongated, MHC-positive myotubes not exposed to DI, approximately 75-80% of the total nuclei are detected in hypernucleated MHC-positive myotubes when these have been previously exposed to DI (see FIG. 1D and Table 1). In Table 1, C2C12 cells were either exposed to sodium butyrate, TSA, VPA or left untreated for 24 hours in GM. The medium was replaced with DM without DI, and MHC expression was detected by immunofluorescent staining. Nuclei were visualized with DAPI. The values in parenthesis indicate the percentage of nuclei detected in MHC-positive cells. The values are derived from two independent trials.

mouse embryos = test: Embryos of pregnant MLC1/3F-nLacZ mice exposed in utero (somitogenesis, muscle gene expression); type: in vivo
Experimental: MLC1/3F-nLacZ pregnant mice (E 8.5) received intra peritoneal injection of 15 μg of TSA (WAKO chemicals, Neuss Germany) or VPA (Sigma) at E 8.5 and E 9.5 as described in Faiella, A., et al., Hum Mol Genet 9:227-36 (2000), and Nervi, C., et al., Cancer Res 61:1247-9 (2001). VPA was dissolved in distilled water and administered at doses of 6 mg/mice (about 150 μg/ml) every 12 h at E 8.5, E 9, E 9.5, E 10 as described in Faiella et al. (2000). […] Mice were sacrificed at E 10.5, and the embryos were observed under a dissecting stereo-microscope to evaluate their viability, presence of external malformations, and number of somites. Embryos were fixed in 4% paraformaldehyde for histology and X-Gal staining or immunocytochemistry using antibodies against MyoD and myosin heavy chains as described in Tajbakhsh, S., et al., Neuron 13:813-21 (1994).
DI was administered intraperitoneally to pregnant mice (at a concentration of 0.5 to 1 mg/Kg for TSA and 200 mg/Kg for VPA) at post-implantation stages of E 8.5, and the pregnant mice were sacrificed at 10.5, when MyoD expression is clearly detectable in the myotomes. […] In Table 2, Somites of MLC1/3F-nLacZ mice (injected at day 8.5 and sacrificed at day 10.5) were scored after staining the embryos to detect β-galactosidase activity.

MLC3F-lacZ-nls construct = test: β-Galactosidase assay of cells transfected with MLC3F-lacZ-nls; type: cell-based, mouse; conditions: transfected cells exposed in GM, then DM 48 hours; vs non-treated cells
Experimental: FIGS. 4A-C illustrate that embryos exposed to DI display enhanced somitogenesis and increased muscle gene expression. […] Cells were then exposed to TSA (50 nM) in GM and subsequently switched to DM for 48 hours. Cells were stained to detect β-galactosidase activity. FIG. 4B is a picture of E 10.5 embryos derived from MLC1/3F-nLacZ transgenic mice exposed to either TSA or VPA treatment (see Example 1) and stained for 1 hour at 30° C. to detect β-galactosidase activity. […] FIG. 4C is a Western blot of extracts derived from total embryos exposed to either TSA or VPA; MHC is detected.
Cells transfected with MLC-lacZ-nls were washed twice in PBS, fixed in 4% paraformaldeheyde-PBS for 5 min, washed twice in PBS, and stained for 2-5 hrs with 5 mM potassium ferrycyanide, 5 mM potassium ferrocyanide, 2 mM MgCl2, 1 mg/ml X-gal (5-bromo-4-chloro-3-indolyl-β-D-galactoside).

[1] = i.p. to pregnant mice at E 8.5, sacrificed at 10.5, 0.5 to 1 mg/Kg TSA, 200 mg/Kg VPA

## CCCC(=O)[O-].[Na+] [Sodium Butyrate, sodium butyrate]
C2C12 cells
  Nuclei/MHC-Positive Cells (number of nuclei): 230 and 210
  percentage of nuclei detected in MHC-positive cells: 83% and 84%
  MHC expression and frequency of MHC-positive multinucleated cells: upregulated MHC expression and displayed a striking increased frequency of larger MHC-positive multinucleated cells
C2C12 cells; C2C12 treated when cultured in DM, 48 hours
  expression of myogenin and MHC, differentiation: failed to activate expression of both myogenin and the myosin heavy chain (MHC) and to properly differentiate
C2C12 cells; cells exposed in DM
  apoptosis (reduced cell density): high frequency of apoptosis

## CCCC(CCC)C(=O)O [VPA, valproic acid]
C2C12 cells
  Nuclei/MHC-Positive Cells (number of nuclei): 153 and 187
  percentage of nuclei detected in MHC-positive cells: 81% and 78%
  MHC expression and frequency of MHC-positive multinucleated cells: effects undistinguishable from those exerted by sodium butyrate
Mouse embryos; E 10.5 embryos, vs control embryos
  level of MLC-lacZ transgene expression: higher level of MLC-lacZ transgene expression
Mouse embryos; MLC1/3F-nLacZ mice injected at day 8.5, sacrificed at day 10.5, TSA [1 mg/ml] (20 ul + 380 ul PBS), VPA 155 mM, one value per embryo, PBS controls 25-32
  # somites (β-galactosidase staining): 35 and 36 and 33 and 34
Mouse embryos; extracts of total embryos
  levels of MHC in exposed embryos (Western blot): augmented the levels of MHC
Mouse embryos; [1]
  number of MLC expressing somites: consistently increased
  number of MyoD expressing myotomes: consistently increased
MLC3F-lacZ-nls construct
  β-galactosidase-positive nuclei: increased β-galactosidase-positive nuclei
